No end group written: not given here.
Test: Plasma pharmacokinetics of ALM201 in Phase I patients (validated LC-MS/MS, Phoenix WinNonlin)
Conditions: for Tmax: median, plasma LC-MS/MS; for Half-life: SC, day 1 cycle 1

IRQQPRDPPTETLELEVSPDPAS [ALM201]
level at 2 h (human, plasma, sc, 300 mg, Plasma concentration, geometric mean (CV%), 300 mg SC, day 1 cycle 1, 2 h after dosing, n = 3, LC-MS/MS): 2310 ng/mL
level at 3 h (human, plasma, sc, 300 mg, Plasma concentration, geometric mean (CV%), 300 mg SC, day 1 cycle 1, 3 h after dosing, n = 3, LC-MS/MS): 2120 ng/mL
level at 4 h (human, plasma, sc, 300 mg, Plasma concentration, geometric mean (CV%), 300 mg SC, day 1 cycle 1, 4 h after dosing, n = 3, LC-MS/MS): 1600 ng/mL
level at 5 h (human, plasma, sc, 300 mg, Plasma concentration, geometric mean (CV%), 300 mg SC, day 1 cycle 1, 5 h after dosing, n = 3, LC-MS/MS): 1280 ng/mL
level at 6 h (human, plasma, sc, 300 mg, Plasma concentration, geometric mean (CV%), 300 mg SC, day 1 cycle 1, 6 h after dosing, n = 3, LC-MS/MS): 901 ng/mL
level at 7 h (human, plasma, sc, 300 mg, Plasma concentration, geometric mean (CV%), 300 mg SC, day 1 cycle 1, 7 h after dosing, n = 3, LC-MS/MS): 703 ng/mL
level at 8 h (human, plasma, sc, 300 mg, Plasma concentration, geometric mean (CV%), 300 mg SC, day 1 cycle 1, 8 h after dosing, n = 3, LC-MS/MS): 420 ng/mL
level at 0.5 h (human, plasma, sc, 300 mg, Plasma concentration, geometric mean (CV%), 300 mg SC, day 3 cycle 1, 0.5 h after dosing, n = 3, LC-MS/MS): 1970 ng/mL
level at 1 h (human, plasma, sc, 300 mg, Plasma concentration, geometric mean (CV%), 300 mg SC, day 3 cycle 1, 1 h after dosing, n = 3, LC-MS/MS): 2590 ng/mL
level at 1.5 h (human, plasma, sc, 300 mg, Plasma concentration, geometric mean (CV%), 300 mg SC, day 3 cycle 1, 1.5 h after dosing, n = 2 values (CV NC), LC-MS/MS): 1950 ng/mL
level at 2 h (human, plasma, sc, 300 mg, Plasma concentration, geometric mean (CV%), 300 mg SC, day 3 cycle 1, 2 h after dosing, n = 2 values (CV NC), LC-MS/MS): 2450 ng/mL
level at 4.5 h (human, plasma, sc, 300 mg, Plasma concentration, geometric mean (CV%), 300 mg SC, day 3 cycle 1, 4.5 h after dosing, n = 3, LC-MS/MS): 1740 ng/mL
level at 7 h (human, plasma, sc, 300 mg, Plasma concentration, geometric mean (CV%), 300 mg SC, day 3 cycle 1, 7 h after dosing, n = 3, LC-MS/MS): 852 ng/mL
level at 0.5 h (human, plasma, sc, 300 mg, Plasma concentration, geometric mean (CV%), 300 mg SC, day 18 cycle 1, 0.5 h after dosing, n = 3, LC-MS/MS): 2290 ng/mL
level at 1 h (human, plasma, sc, 300 mg, Plasma concentration, geometric mean (CV%), 300 mg SC, day 18 cycle 1, 1 h after dosing, n = 3, LC-MS/MS): 2410 ng/mL
level at 1.5 h (human, plasma, sc, 300 mg, Plasma concentration, geometric mean (CV%), 300 mg SC, day 18 cycle 1, 1.5 h after dosing, n = 3, LC-MS/MS): 2600 ng/mL
level at 2 h (human, plasma, sc, 300 mg, Plasma concentration, geometric mean (CV%), 300 mg SC, day 18 cycle 1, 2 h after dosing, n = 3, LC-MS/MS): 2520 ng/mL
level at 4.5 h (human, plasma, sc, 300 mg, Plasma concentration, geometric mean (CV%), 300 mg SC, day 18 cycle 1, 4.5 h after dosing, n = 3, LC-MS/MS): 1370 ng/mL
level at 7 h (human, plasma, sc, 300 mg, Plasma concentration, geometric mean (CV%), 300 mg SC, day 18 cycle 1, 7 h after dosing, n = 3, LC-MS/MS): 767 ng/mL
level at 0.5 h (human, plasma, sc, 300 mg, Plasma concentration, geometric mean (CV%), 300 mg SC, day 18 cycle 2, 0.5 h after dosing, n = 3, LC-MS/MS): 1990 ng/mL
level at 1 h (human, plasma, sc, 300 mg, Plasma concentration, geometric mean (CV%), 300 mg SC, day 18 cycle 2, 1 h after dosing, n = 3, LC-MS/MS): 2280 ng/mL
level at 1.5 h (human, plasma, sc, 300 mg, Plasma concentration, geometric mean (CV%), 300 mg SC, day 18 cycle 2, 1.5 h after dosing, n = 3, LC-MS/MS): 2380 ng/mL
level at 2 h (human, plasma, sc, 300 mg, Plasma concentration, geometric mean (CV%), 300 mg SC, day 18 cycle 2, 2 h after dosing, n = 3, LC-MS/MS): 2540 ng/mL
level at 4.5 h (human, plasma, sc, 300 mg, Plasma concentration, geometric mean (CV%), 300 mg SC, day 18 cycle 2, samples collected at 4.5 hours, n = 3, LC-MS/MS): 720 ng/mL
level at 7 h (human, plasma, sc, 300 mg, Plasma concentration, geometric mean (CV%), 300 mg SC, day 18 cycle 2, samples collected at 7.0 hours, n = 3, LC-MS/MS): 485 ng/mL
level at 0.5 h (human, plasma, sc, 300 mg, Plasma concentration, geometric mean (CV%), 300 mg SC, day 18 cycle 4, 0.5 h after dosing, n = 1, LC-MS/MS): 1670 ng/mL
level at 1 h (human, plasma, sc, 300 mg, Plasma concentration, geometric mean (CV%), 300 mg SC, day 18 cycle 4, 1 h after dosing, n = 1, LC-MS/MS): 2140 ng/mL
level at 1.5 h (human, plasma, sc, 300 mg, Plasma concentration, geometric mean (CV%), 300 mg SC, day 18 cycle 4, 1.5 h after dosing, n = 1, LC-MS/MS): 1990 ng/mL
level at 2 h (human, plasma, sc, 300 mg, Plasma concentration, geometric mean (CV%), 300 mg SC, day 18 cycle 4, 2 h after dosing, n = 1, LC-MS/MS): 1990 ng/mL
level at 4.5 h (human, plasma, sc, 300 mg, Plasma concentration, geometric mean (CV%), 300 mg SC, day 18 cycle 4, sample collected at 4.5 hours, n = 1, LC-MS/MS): 854 ng/mL
level at 7 h (human, plasma, sc, 300 mg, Plasma concentration, geometric mean (CV%), 300 mg SC, day 18 cycle 4, sample collected at 7.0 hours, n = 1, LC-MS/MS): 387 ng/mL
level at 0.5 h (human, plasma, sc, 300 mg, Plasma concentration, geometric mean (CV%), 300 mg SC, day 18 cycle 6, 0.5 h after dosing, n = 1, LC-MS/MS): 3150 ng/mL
level at 1 h (human, plasma, sc, 300 mg, Plasma concentration, geometric mean (CV%), 300 mg SC, day 18 cycle 6, 1 h after dosing, n = 1, LC-MS/MS): 4430 ng/mL
level at 1.5 h (human, plasma, sc, 300 mg, Plasma concentration, geometric mean (CV%), 300 mg SC, day 18 cycle 6, 1.5 h after dosing, n = 1, LC-MS/MS): 5240 ng/mL
level at 2 h (human, plasma, sc, 300 mg, Plasma concentration, geometric mean (CV%), 300 mg SC, day 18 cycle 6, 2 h after dosing, n = 1, LC-MS/MS): 6830 ng/mL
level at 4.5 h (human, plasma, sc, 300 mg, Plasma concentration, geometric mean (CV%), 300 mg SC, day 18 cycle 6, sample collected at 4.5 hours, n = 1, LC-MS/MS): 3600 ng/mL
level at 7 h (human, plasma, sc, 300 mg, Plasma concentration, geometric mean (CV%), 300 mg SC, day 18 cycle 6, sample collected at 7.0 hours, n = 1, LC-MS/MS): 693 ng/mL
Tmax (human, plasma, sc, 300 mg, 300 mg SC, day 1 cycle 1, n = 3): 2 h
Tmax (human, plasma, sc, 300 mg, 300 mg SC, day 3 cycle 1, n = 3): 1.02 h
Tmax (human, plasma, sc, 300 mg, 300 mg SC, day 18 cycle 1, n = 3): 1.5 h
Tmax (human, plasma, sc, 300 mg, 300 mg SC, day 18 cycle 4, n = 1): 1.12 h
Tmax (human, plasma, sc, 300 mg, 300 mg SC, day 18 cycle 6, n = 1): 2.02 h
Half-life (patient 02.002, 80 mg cohort): 1.80 h
Half-life (patient 02.003, 160 mg cohort): 1.50 h
Half-life (patient 03.005, 160 mg cohort): 0.90 h
